Reference: US10766882B2, “1,2-naphthoquinone based derivative and method of preparing the same” (YUNGJIN PHARM. CO., LTD., priority 2013, dated 2020)

Experiments:
C57BL/6J Lep ob/ob mice = experiment: Weight loss effects in obese mice (ob/ob); type: in vivo; conditions: vs 0.1% SLS controls
Summary of the method: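 Male-unspecified C57BL/6J Lep ob/ob mice (6–15 weeks old, n=3 per group) on low-fat chow received compound by daily oral gavage (40–150 mg/kg, 10 ml/kg) for 6 days to 2 weeks, with 0.1% SLS vehicle as control. Body weight was recorded daily, gain calculated from day 1 to the day before termination, and food intake measured twice weekly.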

Cells = experiment: Measurement of lactate change amount within cells; type: cell-based; conditions: PCA extract of cells, lactate measured from supernatant (Megazyme, K-LATE)
Summary of the method: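 Cells were extracted in 6% perchloric acid and centrifuged (13,000 rpm, 10 min), and the dried pellet was weighed. The supernatant was neutralised with 1 M KOH, brought up in 0.33 M potassium phosphate pH 7.5 and re-centrifuged. Lactate was measured in this supernatant with a commercial lactate kit.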

C57BLKS/J db/db mice = experiment: Glucose level and glycosylated hemoglobin (Hb1Ac) in fasted diabetic mice (db/db); type: in vivo; conditions: Exp. Ex. 5, FIG. 9: 10 week-old db/db mice, 40, 80, 120 mg/kg oral, fasted for 14 hours, vs 0.1% SLS controls
Protocol: 10 week-old C57BLKS/J db/db mice having genetic obesity characteristics available from ORIENTBIO were prepared. Two mice were raised in each polycarbonate breeding cage (200 W×260 L×130H (mm), Three-shine) in which temperature was 22 to 24° C., relative humidity was 30 to 50%, illuminance was 150 to 300 lux, night and day were 12 hours, and exhaust was performed at 10 to 15 air changes per hour. As a feed, low fat diet (11.9 kcal % fat, 5053, Labdiet) manufactured by ORIENTBIO was used. The feed was contained in a feeder and free intake was allowed. As drinking water, water, which was contained in a 250 mL polycarbonate based bottle, purified through a filter and a sterilizer was used and free intake was allowed.
The compound according to Example 1 synthesized in the present invention was orally administered to three C57BLKS/J db/db mice in amounts of 40 mg/kg, 80 mg/kg, and 120 mg/kg, respectively. For administration, a disposable syringe fitted with a sonde for oral administration was used and 10 ml/kg of the compound was orally administered into the stomach. As controls, three C57BLKS/J db/db mice were administered 0.1% SLS in an amount of 120 mg/kg in the same manner as described above. After administration, the mice were fasted for 14 hours and glucose levels and glycosylated hemoglobin thereof were measured. Results are illustrated in FIG. 9 below.

[1] = Exp. Ex. 3-1, FIG. 1: 10 week-old ob/ob mice, 40, 80, 120 mg/kg oral once every day, two weeks
[2] = Exp. Ex. 3-2, FIG. 2: 6 week-old ob/ob mice, 100 mg/kg oral
[3] = Exp. Ex. 3-10, FIG. 13: 6 week-old ob/ob mice, 100 mg/kg oral, two weeks
[4] = Exp. Ex. 3-11, FIG. 14: 6.5 week-old ob/ob mice, 100 mg/kg oral, one week
[5] = Exp. Ex. 3-12, FIG. 15: 6 week-old ob/ob mice, 100 mg/kg oral, two weeks
[6] = Exp. Ex. 3-13, FIG. 16: 6 week-old ob/ob mice, 100 mg/kg oral, one week

In the case of `CC(C)c1nc2c([nH]1)C(=O)C(=O)c1ccccc1-2` [Example 1, 2-isopropyl-1H-naphtho[2,1-d]imidazole-4,5-dione], the intake amount (C57BL/6J Lep ob/ob mice; [1]) is reported as “significantly decreased”, the weight change (C57BL/6J Lep ob/ob mice; [1]) is reported as “significantly decreased” and the weight increase ratio (C57BL/6J Lep ob/ob mice; [1]) is reported as “significantly decreased”. The intake amount (C57BL/6J Lep ob/ob mice; [2]) was “significantly decreased”, the weight change (C57BL/6J Lep ob/ob mice; [2]) was “significantly decreased” and the weight increase ratio (C57BL/6J Lep ob/ob mice; [2]) was “significantly decreased”. The intake amount (C57BL/6J Lep ob/ob mice; [3]) was “significantly decreased in some sections”, the weight change (C57BL/6J Lep ob/ob mice; [3]) was “significantly decreased in some sections” and the weight increase ratio (C57BL/6J Lep ob/ob mice; [3]) was “significantly decreased in some sections”. For the same compound, the intake amount (C57BL/6J Lep ob/ob mice; [4]) was “significantly decreased in some sections”, the weight change (C57BL/6J Lep ob/ob mice; [4]) was “significantly decreased in some sections” and the weight increase ratio (C57BL/6J Lep ob/ob mice; [4]) was “significantly decreased in some sections”. For the same compound, the intake amount (C57BL/6J Lep ob/ob mice; [5]) was “significantly decreased in some sections”, the weight change (C57BL/6J Lep ob/ob mice; [5]) was “significantly decreased in some sections” and the weight increase ratio (C57BL/6J Lep ob/ob mice; [5]) was “significantly decreased in some sections”. For the same compound, the intake amount (C57BL/6J Lep ob/ob mice; [6]) was “significantly decreased in some sections”, the weight change (C57BL/6J Lep ob/ob mice; [6]) was “significantly decreased in some sections” and the weight increase ratio (C57BL/6J Lep ob/ob mice; [6]) was “significantly decreased in some sections”. For the same compound, the “Lactate change amount within cells (nmol/mg cell)” value (Cells) was 6.1 nmol/mg cell, the glucose level (C57BLKS/J db/db mice) was “significantly decreased” and the “glycosylated hemoglobin (Hb1Ac)” value (C57BLKS/J db/db mice) was “significantly decreased”.
